Assay [1] deals with DSS-induced UC model mice. Put plainly: Inflammatory factor and oxidative stress indicators by ELISA in serum and colon of DSS-induced UC model. In kind it is in vivo, BALB/c male mice. The following applies: compared with model group; for IL-6 level / TNF-α level / iNOS level: serum and colon, gavage 5-ASA 100 mg/kg, 28-OA-β-G 5, 10, 20 mg/kg.
Procedure: SPF-grade BALB/c male mice (weighting 22-24 g) were purchased from Changchun Yisi Laboratory Animal Technology Co., Ltd. After 1 week of adaptive feeding, the mice were randomly divided into 6 groups (n=10), including: a control group, a model group, a positive drug group (5-ASA, 100 mg/kg), an oleanolic acid-28-O-β-D-glucopyranoside low-dose group (28-OA-β-GL, 5 mg/kg), an oleanolic acid-28-O-β-D-glucopyranoside medium-dose group (28-OA-β-GM, 10 mg/kg), and an oleanolic acid-28-O-β-D-glucopyranoside high-dose group (28-OA-β-GH, 20 mg/kg). The control group was administrated with distilled water, while the other groups were freely allowed to drink a 3.5% dextran sulfate sodium (M.W.: 40,000 Da, DSS) solution for 7 days to induce a UC model. From the Day 4 to Day 10 of modeling, the mice in the control group and the model group were administrated with distilled water by gavage, while the mice in other groups were administrated with a 5-ASA or 28-OA-β-G solution by gavage, respectively. The gavage was performed once a day. The administration volume was 10 ml/kg. After fasting for 12 hours on the Day 10, whole blood was collected from all mice by using an eyeball blood collection method, the mice were killed by cervical dislocation, and colon tissues and spleen tissues were collected. Content determination of inflammatory factor and oxidative stress indicators: serum and colon tissue samples were collected, and the contents of TNF-α, IL-6, and iNOS in the serum and colon were determined using an ELISA kit, while the levels of MPO, SOD, and MDA in the colon were detected.
The subject of assay [2] is DSS-induced UC model mice. Description: DSS-induced UC model: body weight, DAI score, colon length, spleen coefficient. In kind it is in vivo, BALB/c male mice. As to conditions: for weight loss rate: 3.5% DSS 7 days, gavage once a day Day 4 to Day 10, 28-OA-β-G 5, 10, 20 mg/kg. As to the method:
(§1) SPF-grade BALB/c male mice (weighting 22-24 g) were purchased from Changchun Yisi Laboratory Animal Technology Co., Ltd. After 1 week of adaptive feeding, the mice were randomly divided into 6 groups (n=10), including: a control group, a model group, a positive drug group (5-ASA, 100 mg/kg), an oleanolic acid-28-O-β-D-glucopyranoside low-dose group (28-OA-β-GL, 5 mg/kg), an oleanolic acid-28-O-β-D-glucopyranoside medium-dose group (28-OA-β-GM, 10 mg/kg), and an oleanolic acid-28-O-β-D-glucopyranoside high-dose group (28-OA-β-GH, 20 mg/kg).
(§2) The control group was administrated with distilled water, while the other groups were freely allowed to drink a 3.5% dextran sulfate sodium (M.W.: 40,000 Da, DSS) solution for 7 days to induce a UC model. From the Day 4 to Day 10 of modeling, the mice in the control group and the model group were administrated with distilled water by gavage, while the mice in other groups were administrated with a 5-ASA or 28-OA-β-G solution by gavage, respectively. The gavage was performed once a day. The administration volume was 10 ml/kg. After fasting for 12 hours on the Day 10, whole blood was collected from all mice by using an eyeball blood collection method, the mice were killed by cervical dislocation, and colon tissues and spleen tissues were collected.
Body weight and disease activity index scores: during the experiment, all mice were weighed every day, and the general behavior states of the mice were observed; the weight changes, stool states and hematochezia degrees of the mice were recorded every day, and scored according to the criteria shown in Table 3; and an average disease activity index (DAI) score of the mice in each group per day was calculated according to the formula: DAI=(weight loss score+stool state score+hematochezia degree score)/3.
Spleen coefficient: the spleen tissues were dissected and accurately weighed, and the spleen coefficient was calculated using the formula: spleen coefficient=spleen mass (mg)/mouse weight (g), as shown in FIG. 10. The spleen coefficient also reflected the degree of inflammatory response within the body.

Assay [3] relates to TNF-α, IL-6, and iNOS in Caco-2 cells. Put plainly: Inflammatory factors TNF-α, IL-6, iNOS by ELISA in LPS-induced Caco-2 cell model. As to conditions: LPS 1 μg/ml, 24 hours; high-dose groups 8 μM. It is filed as cell-based, Human. The procedure:
(§3) (1) Determination of Transmembrane Epithelial Resistance and Inflammatory Factors in Caco-2 Cells
(§4) The Caco-2 cells were inoculated at a density of 1×10^5 cells/ml (400 μl per well) into a Transwell chamber and cultured under 5% CO2 and 37° C. After Day 21, a medium was replaced with a basal MEM medium. […] Resistance values were measured using a transmembrane resistance meter. TEER value=(measured resistance value−control resistance value)×Transwell chamber area, expressed in Ω·cm^2. […]
On the technique in general: In an ELISA, binding on a coated surface is turned into a signal by an enzyme label.

Assay [4] deals with ZO-1, Occludin, Claudin-1, and E-cadherin in Caco-2 cells. Put plainly: Expression of tight junction proteins in Caco-2 cells by immunofluorescence. The following applies: 24 hours. In kind it is cell-based, Human. The procedure: (2) Determination of Expression Level of Tight Junction Proteins in Caco-2 Cells
Caco-2 cells (1×10^5 cells/ml) were inoculated onto a cell climbing slice in a 24-well plate (with 600 μl of cells per well), and reached confluence within 2 days. The cells were divided into 7 groups: a control group, a model group (LPS 1 μg/ml), a 5-ASA group (LPS 1 μg/ml+5-ASA 50 μM), an LPS+28-OA-β-GL group (LPS 1 μg/ml+28-OA-β-G 2 μM), an LPS+28-OA-β-GM group (LPS 1 μg/ml+28-OA-β-G 4 μM), an LPS+28-OA-β-GH group (LPS 1 μg/ml+28-OA-β-G 8 μM), and a 28-OA-β-G group (28-OA-β-G 8 μM). The control group was added with a MEM medium, while the other groups were added with the corresponding doses of LPS and 28-OA-β-G with the MEN medium as a solvent, and incubated in a 5% CO2, 37° C. constant-temperature incubator for 24 hours. Immunofluorescence imaging was performed after a series of treatments.

Another assay relates to Caco-2 cells. Put plainly: Transmembrane epithelial resistance (TEER) in LPS-induced Caco-2 cells. As to conditions: LPS 1 μg/ml + 28-OA-β-G 8 μM, 24 hours; compared with LPS treatment. It is filed as cell-based, Human. The procedure: as §3, §4
Assay [5] deals with DSS-induced UC model mice. Description: Transmission electron microscope observation of mouse colon tissues. As to conditions: 28-OA-β-GH group, 20 mg/kg; compared with model group. It is filed as in vivo, BALB/c male mice. As to the method: as §1
as §2, with “collected. […]” for “collected.”

Assay [6] relates to DSS-induced UC model mice. Put plainly: FD4 permeability analysis in DSS-induced UC model. It is filed as in vivo, BALB/c male mice. As to conditions: 20 mg/kg FD4 by gavage 30 minutes before sacrifice; 28-OA-β-G intervention; compared with model group. The procedure:
as §1
The control group was administrated with distilled water, while the other groups were freely allowed to drink a 3.5% dextran sulfate sodium (M.W.: 40,000 Da, DSS) solution for 7 days to induce a UC model. […]
FD4 permeability analysis: all mice were administrated with 20 mg/kg FD4 normal saline solution by gavage 30 minutes before sacrifice, whole blood was collected by the eye blood collection method on a sterile ultra-clean table, and the upper serum was taken after centrifugation, and then aspirated into a black 96-well microplate. The fluorescence intensity was detected using a microplate reader at an excitation wavelength of 492 nm and an emission wavelength of 520 nm. […]

The record followed here is patent publication US12491204B2, “Use of oleanolic acid-28-O-beta-D-glucopyranoside in preparation of anti-colitis drug” (JILIN UNIVERSITY, priority 2023, dated 2025).

Turning to `Nc1ccc(O)c(C(=O)O)c1` [5-ASA, 5-aminosalicylic acid, reference compound], in assay [1], the IL-6 level result was “significantly decreased”, the TNF-α level entry is reported as “significantly decreased” and the iNOS level result was “significantly decreased”. Besides, the weight loss rate entry in assay [2] (5-ASA 100 mg/kg) is reported as “significantly reduced”. For the same compound, in assay [2] (positive drug group, 5-ASA 100 mg/kg, compared with model group), the spleen coefficient entry was “significantly reduced”.

For `CC1(C)CC[C@]2(C(=O)O[C@@H]3O[C@H](CO)[C@@H](O)[C@H](O)[C@H]3O)CC[C@]3(C)C(=CC[C@@H]4[C@@]5(C)CC[C@H](O)C(C)(C)[C@@H]5CC[C@]43C)[C@@H]2C1` [28-OA-β-G, Oleanolic acid-28-O-β-D-glucopyranoside], in assay [3], the “anti-inflammatory activity (TNF-α, IL-6, iNOS levels), comparison among compounds” value is given as “best anti-inflammatory activity among the high-dose administration groups”. The “distribution on the cell membrane and expression of the four tight junction proteins (ZO-1, Occludin, Claudin-1, E-cadherin)” value in assay [4] (LPS 1 μg/ml + 28-OA-β-G 2, 4, 8 μM, as dose increased) is “regained their normal distribution on the cell membrane and also increase the expression”. For the same compound, the “expression of the four tight junction proteins (ZO-1, Occludin, Claudin-1, E-cadherin)” value in assay [4] (normal cells without LPS, 28-OA-β-G alone 8 μM) was “not affected”. For the same compound, the TEER value entry in the assay on Caco-2 cells is “significantly increased”. For the same compound, the “ultrastructure of colonic mucosa cells (transmission electron microscope)” value in assay [5] was “restored the integrity of intestinal mucosa cells”. In addition, in assay [1] (colon), the MDA level entry is “dose-dependently reduce”, the MPO level entry is “dose-dependently reduce” and the SOD level result was “increased”. Further, in assay [1], the IL-6 level result is given as “significantly decreased”, the TNF-α level result is on record as “significantly decreased” and the iNOS level entry was “significantly decreased”. Moreover, the “serum FD4 concentration (FD4 permeability)” value in assay [6] is given as “significantly reduced”. The weight loss rate result in assay [2] (5-ASA 100 mg/kg) is reported as “significantly reduced”. Also, the “weight changes, relation to dose” value in assay [2] (28-OA-β-G 5, 10, 20 mg/kg gavage) is recorded as “positively correlated with the increase in dose”. For the same compound, in assay [2] (28-OA-β-G high-dose group, 20 mg/kg, compared with model group), the spleen coefficient entry is “significantly reduced”. In addition, the spleen coefficient result in assay [2] (28-OA-β-G medium-dose group, 10 mg/kg, compared with model group) is listed as “significantly reduced”. For the same compound, in assay [2] (28-OA-β-GH group, 20 mg/kg gavage), the weight changes entry is given as “tended towards the control group”. Further, the “anti-ulcerative-colitis activity (overall conclusion)” value in assay [2] (DSS-induced UC model, compared with positive control 5-ASA) is “significant anti-ulcerative-colitis activity which was not statistically different from that of the positive control group of 5-ASA”. Also, the “DAI score compared to the 5-ASA group” value in assay [2] (Day 10, 28-OA-β-GH group, 20 mg/kg, 5-ASA 100 mg/kg) is “no significant difference compared to the 5-ASA group”. For the same compound, the DAI score result in assay [2] (Day 10, 28-OA-β-GH group, 20 mg/kg, compared with model group) is “significantly lower than that in the model group”. Also, the “colon length (degree of colon damage)” value in assay [2] (oral administration of 28-OA-β-G 5, 10, 20 mg/kg, compared with model group) is listed as “effectively alleviated”.
